Test results published in PMC7229206, “Split Intein-Mediated Protein Ligation for detecting protein-protein interactions and their inhibition” (Nature Communications, 2020).

Biological target: T1, EGFR (Homo sapiens, UniProt P00533)
T1 construct: EGFR-IN; with SHC1
Assay: SIMPL western blot of EGFR/SHC1 interaction in cells (indirect readout of EGFR kinase activity)
Assay type: cell-based

T1 sequence (P00533 25-1210): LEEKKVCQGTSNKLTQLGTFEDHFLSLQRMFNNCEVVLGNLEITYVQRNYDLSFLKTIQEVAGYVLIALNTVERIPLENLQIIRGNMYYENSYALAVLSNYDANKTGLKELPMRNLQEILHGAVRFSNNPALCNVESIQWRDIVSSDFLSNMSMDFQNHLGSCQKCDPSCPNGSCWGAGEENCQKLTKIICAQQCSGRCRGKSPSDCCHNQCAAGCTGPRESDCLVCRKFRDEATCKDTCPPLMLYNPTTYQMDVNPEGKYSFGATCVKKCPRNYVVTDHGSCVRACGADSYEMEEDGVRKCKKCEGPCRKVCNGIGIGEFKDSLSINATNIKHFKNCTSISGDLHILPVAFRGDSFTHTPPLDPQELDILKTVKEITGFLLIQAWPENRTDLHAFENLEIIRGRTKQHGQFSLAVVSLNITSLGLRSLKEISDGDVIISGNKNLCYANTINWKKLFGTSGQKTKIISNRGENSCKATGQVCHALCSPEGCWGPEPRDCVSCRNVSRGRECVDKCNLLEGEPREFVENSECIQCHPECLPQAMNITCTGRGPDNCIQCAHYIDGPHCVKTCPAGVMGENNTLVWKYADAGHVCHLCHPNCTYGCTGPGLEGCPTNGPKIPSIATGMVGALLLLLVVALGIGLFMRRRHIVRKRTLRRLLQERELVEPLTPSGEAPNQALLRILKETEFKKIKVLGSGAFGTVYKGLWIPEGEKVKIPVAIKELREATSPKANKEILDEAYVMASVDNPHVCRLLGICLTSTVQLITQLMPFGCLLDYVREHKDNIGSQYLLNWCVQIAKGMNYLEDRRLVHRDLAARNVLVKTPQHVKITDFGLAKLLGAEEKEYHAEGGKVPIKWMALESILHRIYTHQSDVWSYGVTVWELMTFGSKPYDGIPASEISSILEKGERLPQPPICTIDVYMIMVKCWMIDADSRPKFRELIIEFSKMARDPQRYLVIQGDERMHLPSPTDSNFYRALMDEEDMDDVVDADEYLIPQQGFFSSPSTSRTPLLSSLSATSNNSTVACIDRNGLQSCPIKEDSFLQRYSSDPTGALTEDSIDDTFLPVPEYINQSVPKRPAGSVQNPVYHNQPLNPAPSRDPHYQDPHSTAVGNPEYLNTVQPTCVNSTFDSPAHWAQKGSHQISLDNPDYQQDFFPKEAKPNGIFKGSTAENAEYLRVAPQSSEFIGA
T1 sequence (P29353 whole entry, further chain): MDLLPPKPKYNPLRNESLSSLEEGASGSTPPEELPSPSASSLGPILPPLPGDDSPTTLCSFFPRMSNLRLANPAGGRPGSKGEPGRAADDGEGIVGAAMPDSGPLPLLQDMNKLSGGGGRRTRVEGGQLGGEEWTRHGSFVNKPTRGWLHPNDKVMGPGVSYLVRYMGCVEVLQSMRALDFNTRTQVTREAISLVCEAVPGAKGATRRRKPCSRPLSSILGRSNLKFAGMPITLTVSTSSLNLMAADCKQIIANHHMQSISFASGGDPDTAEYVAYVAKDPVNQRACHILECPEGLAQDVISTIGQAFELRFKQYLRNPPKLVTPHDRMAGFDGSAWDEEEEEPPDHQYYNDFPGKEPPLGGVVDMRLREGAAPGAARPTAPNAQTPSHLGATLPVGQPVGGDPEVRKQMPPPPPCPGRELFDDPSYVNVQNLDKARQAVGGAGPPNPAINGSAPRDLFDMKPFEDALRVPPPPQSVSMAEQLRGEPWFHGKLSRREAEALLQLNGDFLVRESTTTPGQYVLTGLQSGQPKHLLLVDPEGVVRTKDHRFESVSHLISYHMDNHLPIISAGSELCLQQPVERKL

COc1cc2ncnc(Nc3cccc(Cl)c3)c2cc1OC [AG1478]
SIMPL western blot of EGFR/SHC1 interaction in cells (indirect readout of EGFR k): The spliced EGFR-SHC1 band observed by western blot diminished with increasing AG1478 concentration.
